# In PubChem BioAssay (NCI):
#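 Where inhibition never reached the appropriate level, the endpoint shown equals the highest concentration tested. Otherwise, values were interpolated linearly from a five-concentration, 48-hour dose response in 96-well plates. TGI denotes the concentration required for complete inhibition of growth.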 Where a SMILES comes first, the peptide text is derived from it. [ ]: non-standard residue; d: D form. The star is where a group is joined. Iva = CC[C](C)(N)C(=O)O; Boc = CC(C)(C)OC(=O)*; X52 = C1CCC(=NO*)C1
# How the values were obtained:
# Test in all cases: NCI-60 cell line screen, 48 h
# IGROV1 ovarian = system: IGROV1 ovarian
# OVCAR-8 ovarian = system: OVCAR-8 ovarian
# HOP-62 NSCLC = system: HOP-62 NSCLC
# ACHN renal = system: ACHN renal
# NCI-H23 lung = system: NCI-H23 lung
# UO-31 renal = system: UO-31 renal
# SK-MEL-5 melanoma = system: SK-MEL-5 melanoma
# HOP-92 NSCLC = system: HOP-92 NSCLC
# M14 melanoma = system: M14 melanoma
# MDA-MB-435 = system: MDA-MB-435
# SK-MEL-2 melanoma = system: SK-MEL-2 melanoma
# T-47D breast = system: T-47D breast
# MOLT-4 leukemia = system: MOLT-4 leukemia
# K-562 leukemia = system: K-562 leukemia
# LOX IMVI melanoma = system: LOX IMVI melanoma
# OVCAR-5 ovarian = system: OVCAR-5 ovarian
# SNB-19 CNS = system: SNB-19 CNS
# KM12 colon = system: KM12 colon
# SK-MEL-28 melanoma = system: SK-MEL-28 melanoma
# HCC-2998 colon = system: HCC-2998 colon
SMILES,TGI (IGROV1 ovarian),TGI (OVCAR-8 ovarian),TGI (HOP-62 NSCLC),TGI (ACHN renal),TGI (NCI-H23 lung),TGI (UO-31 renal),TGI (SK-MEL-5 melanoma),TGI (HOP-92 NSCLC),TGI (M14 melanoma),TGI (MDA-MB-435),TGI (SK-MEL-2 melanoma),TGI (T-47D breast),TGI (MOLT-4 leukemia),TGI (K-562 leukemia),TGI (LOX IMVI melanoma),TGI (OVCAR-5 ovarian),TGI (SNB-19 CNS),TGI (KM12 colon),TGI (SK-MEL-28 melanoma),TGI (HCC-2998 colon)
N#CC(C#N)=C/C=C(\Sc1c(Cl)c(Cl)nc(Cl)c1Cl)c1ccc(Cl)cc1,53.6 µM,> 100 µM,96.6 µM,37.8 µM,35.9 µM,> 100 µM,27.7 µM,> 100 µM,38.9 µM,20.3 µM,> 100 µM,> 100 µM,> 100 µM,> 100 µM,20.5 µM,44.6 µM,43 µM,51.5 µM,49.7 µM,–
CC1(C)CCc2c(c(N=Nc3ccc(S(N)(=O)=O)cc3)c3ccccc3c2O)O1,40.1 µM,28.7 µM,20.7 µM,56.7 µM,24.5 µM,40.4 µM,8.1 µM,37.5 µM,38.2 µM,22.5 µM,83.8 µM,49.3 µM,82.7 µM,> 100 µM,21.3 µM,38.2 µM,39 µM,66.4 µM,72.9 µM,15.9 µM
COc1ccc2cc3[nH]c(=O)cc(O)c3cc2c1OC,> 100 µM,> 100 µM,> 100 µM,> 100 µM,> 100 µM,> 100 µM,–,> 100 µM,> 100 µM,–,> 100 µM,–,> 100 µM,> 100 µM,> 100 µM,> 100 µM,> 100 µM,> 100 µM,> 100 µM,> 100 µM
COc1cc(S(=O)(=O)Nc2nc(-c3ccc(N4C(=O)/C(=C/C=C/c5ccccc5)N=C4c4ccccc4)cc3)cs2)ccc1Cl,> 100 µM,> 100 µM,> 100 µM,> 100 µM,> 100 µM,> 100 µM,> 100 µM,> 100 µM,> 100 µM,> 100 µM,> 100 µM,> 100 µM,> 100 µM,> 100 µM,> 100 µM,> 100 µM,> 100 µM,> 100 µM,> 100 µM,–
C1CSCCSCCSCCSC1,> 100 µM,> 100 µM,> 100 µM,> 100 µM,> 100 µM,> 100 µM,> 100 µM,> 100 µM,> 100 µM,> 100 µM,> 100 µM,> 100 µM,> 100 µM,–,> 100 µM,> 100 µM,> 100 µM,> 100 µM,> 100 µM,> 100 µM
Oc1c(Cl)c(Cl)c(O)c(CCNc2ccc3ncccc3c2)c1Cl,21 µM,50.6 µM,27.7 µM,28 µM,25.9 µM,31.2 µM,5.52 µM,> 100 µM,27.1 µM,18.8 µM,22.8 µM,> 100 µM,> 100 µM,> 100 µM,–,40.4 µM,32.3 µM,15.9 µM,54.6 µM,28 µM
CCCCN1CN2C(=O)C(C(=O)OCC)C(=O)c3sc4nc(SC)nc1c4c32 (stereo unspecified),33.5 µM,36.8 µM,30.5 µM,30.7 µM,33.6 µM,37.4 µM,24.8 µM,30.5 µM,40.1 µM,34 µM,36.6 µM,42.7 µM,66.3 µM,77.9 µM,38.1 µM,32.6 µM,34.8 µM,36 µM,34 µM,–
COc1ccc(C2SCC(=O)N2NC(=O)c2ccncc2)cc1F (stereo unspecified),–,–,> 100 µM,> 100 µM,> 100 µM,–,> 100 µM,> 100 µM,> 100 µM,–,> 100 µM,–,–,–,> 100 µM,> 100 µM,> 100 µM,> 100 µM,> 100 µM,> 100 µM
O=c1[nH]/c(=C/c2ccc(OCc3ccccc3)cn2)c(=O)[nH]/c1=C/c1ccc(F)cc1,13.1 µM,> 47 µM,> 35.5 µM,> 76.2 µM,> 50.4 µM,> 60.1 µM,> 100 µM,> 37.7 µM,> 32.1 µM,0.687 µM,> 52.2 µM,> 55.6 µM,> 34.4 µM,> 36.4 µM,> 100 µM,> 100 µM,> 34.2 µM,> 40.9 µM,> 100 µM,> 40.3 µM
Cc1c(S(=O)(=O)O)ccc(N=Nc2c(O)c(C(=O)O)cc3ccccc23)c1Cl,> 100 µM,> 100 µM,> 100 µM,> 100 µM,> 100 µM,> 100 µM,> 100 µM,> 100 µM,> 100 µM,> 100 µM,> 100 µM,> 100 µM,> 100 µM,> 100 µM,> 100 µM,> 100 µM,> 100 µM,> 100 µM,> 100 µM,> 100 µM
COc1ccc(-c2c3c(cc4cc5c(cc24)OCO5)C(=O)OC3)cc1OC,> 100 µM,–,7.16 µM,> 100 µM,26.5 µM,14.1 µM,0.68 µM,> 23.4 µM,1.16 µM,11.5 µM,4.91 µM,3.46 µM,20.4 µM,> 36.8 µM,0.0663 µM,> 100 µM,52 µM,> 36 µM,9.38 µM,13.9 µM
COc1cc2cc3c4cc(OC)c(OC)cc4cc[n+]3cc2cc1OC,> 100 µM,> 100 µM,> 100 µM,–,> 100 µM,> 100 µM,> 100 µM,> 100 µM,–,–,> 100 µM,–,> 96.8 µM,> 100 µM,> 100 µM,> 100 µM,> 100 µM,> 100 µM,> 100 µM,> 100 µM
CCC(C)(NC(=O)C(C)NC(=O)OC(C)(C)C)C(=O)NC(C)C(=O)NC(C)(CC)C(=O)ON=C1CCCC1 (stereo unspecified) (Boc-A[Iva]A[Iva]-X52; configuration not given here),> 100 µM,> 100 µM,> 100 µM,–,> 100 µM,> 100 µM,> 100 µM,> 100 µM,> 100 µM,> 100 µM,> 100 µM,> 100 µM,> 100 µM,> 100 µM,–,> 100 µM,> 100 µM,> 100 µM,> 100 µM,> 100 µM
O=[N+]([O-])c1ccc(N=Nc2c(O)ccc3ccccc23)c([N+](=O)[O-])c1,> 100 µM,> 100 µM,> 100 µM,> 100 µM,> 100 µM,> 100 µM,> 100 µM,> 100 µM,> 100 µM,> 100 µM,> 100 µM,> 100 µM,> 100 µM,> 71.4 µM,> 100 µM,> 100 µM,> 100 µM,> 100 µM,> 100 µM,> 100 µM
CCCSc1ccc2[nH]c(/N=C/c3ccccc3)cc2c1,> 100 µM,56.2 µM,–,> 100 µM,> 100 µM,> 100 µM,20.4 µM,76.9 µM,> 100 µM,> 100 µM,32.2 µM,> 100 µM,55.9 µM,38.8 µM,32.5 µM,> 100 µM,–,–,90.7 µM,–
CC(C)OP(=O)(OC(C)C)c1nc(-c2ccccc2)n(-c2ccc([N+](=O)[O-])cc2)n1,> 100 µM,> 100 µM,> 100 µM,> 100 µM,> 100 µM,> 100 µM,> 100 µM,> 100 µM,> 100 µM,–,> 100 µM,–,> 100 µM,> 100 µM,–,> 100 µM,> 100 µM,> 100 µM,> 100 µM,> 100 µM
